From BindingDB's records for doi:10.1021/bi00421a012 (Pennsylvania State University, 1988) come the findings set out here.

pKd: −log10 of the molar value.

This experiment has as its target T1, Carbamoyl-phosphate synthase small chain (Escherichia coli (strain K12), UniProt P0A6F1).
T1 sequence (P0A6F1 whole entry): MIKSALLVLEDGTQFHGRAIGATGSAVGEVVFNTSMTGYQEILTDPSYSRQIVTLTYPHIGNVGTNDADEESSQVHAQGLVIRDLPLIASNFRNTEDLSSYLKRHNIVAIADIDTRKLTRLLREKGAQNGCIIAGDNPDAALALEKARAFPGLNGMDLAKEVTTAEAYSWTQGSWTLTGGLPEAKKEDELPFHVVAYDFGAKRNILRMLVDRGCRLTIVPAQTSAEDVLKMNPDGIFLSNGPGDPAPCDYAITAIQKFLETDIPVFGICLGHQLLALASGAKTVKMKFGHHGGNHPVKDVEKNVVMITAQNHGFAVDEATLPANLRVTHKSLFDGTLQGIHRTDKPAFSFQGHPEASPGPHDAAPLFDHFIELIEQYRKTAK
The conditions noted are these: pH 7.5; 25 °C.

With `O=P(O)(O)OC[C@H]1O[C@@H](n2cnc3c2ncn2ccnc32)[C@H](O)[C@@H]1O` [[(2R,3S,4R,5R)-3,4-dihydroxy-5-imidazo[2,1-f]purin-3-yloxolan-2-yl]methyl dihydrogen phosphate], the pKd was 4.48.
